From ChEMBL document CHEMBL1159136, “Dipeptide mimetics can substitute for the receptor activation domain resulting in highly potent analogues of hPTH(136)” (Bioorg Med Chem Lett, 1996) come the findings set out here.

Assay [1] concerns OK-1. Briefly: Compound was evaluated for the accumulation of cyclic AMP in OK-1 cells. The assay is classed as functional, cell-based, opossum.
The subject of assay [2] is OK-1. Put plainly: Compound was evaluated for the intrinsic activity for accumulation of cyclic AMP in OK-1 cells. The class given is functional, opossum.
Assay [3] deals with OK-1. Put plainly: Displacement of [125I]-chick PTHrP-(1-36)-NH2 from opossum (OK-1) kidney cells. The class given is functional.
The subject of assay [4] is SAOS-2. Put plainly: Compound was evaluated for the accumulation of cyclic AMP in SaOS-2 (human osteosarcoma) cells. The class given is functional, cell-based. The conditions noted are these: Homo sapiens, SAOS-2.
Assay [5] relates to SAOS-2. Put plainly: Compound was evaluated for the intrinsic activity for accumulation of cyclic AMP in SaOS-2 (human osteosarcoma) cells. The assay is classed as functional.
The test system of assay [6] is UMR106-06. Briefly: Compound was evaluated for the intrinsic activity for accumulation of cyclic AMP in UMR10606 (rat osteosarcoma) cells. The class given is functional.
In assay [7] the test system is UMR106-06. Put plainly: Compound was evaluated for the accumulation of cyclic AMP in UMR10606 (rat osteosarcoma) cells. The class given is functional, cell-based.
Assay [8] has as its system OK-1. Briefly: Accumulation of cyclic AMP in OK-1 cells. The class given is functional, cell-based, opossum. Particulars: opossum, OK-1.

On to `CC[C@H](C)[C@H](NC(=O)[C@H](CCC(=O)O)NC(=O)[C@H](CO)NC(=O)[C@@H](NC(=O)[C@@H](N)CO)C(C)C)C(=O)N[C@@H](CCC(N)=O)C(=O)N[C@@H](CC(C)C)C(=O)N[C@@H](CCSC)C(=O)N[C@@H](Cc1c[nH]cn1)C(=O)N[C@@H](CC(N)=O)C(=O)N[C@@H](CC(C)C)C(=O)NCC(=O)N[C@@H](CCCCN)C(=O)N[C@@H](Cc1c[nH]cn1)C(=O)N[C@@H](CC(C)C)C(=O)N[C@@H](CC(N)=O)C(=O)N[C@@H](CO)C(=O)N[C@@H](CCSC)C(=O)N[C@@H](CCC(=O)O)C(=O)N[C@@H](CCCN=C(N)N)C(=O)N[C@H](C(=O)N[C@@H](CCC(=O)O)C(=O)N[C@@H](Cc1c[nH]c2ccccc12)C(=O)N[C@@H](CC(C)C)C(=O)N[C@@H](CCCN=C(N)N)C(=O)N[C@@H](CCCCN)C(=O)N[C@@H](CCCCN)C(=O)N[C@@H](CC(C)C)C(=O)N[C@@H](CCC(N)=O)C(=O)N[C@@H](CC(=O)O)C(=O)N[C@H](C(=O)N[C@@H](Cc1c[nH]cn1)C(=O)N[C@@H](CC(N)=O)C(=O)N[C@@H](Cc1ccccc1)C(=O)N[C@H](C(=O)N[C@@H](C)C(N)=O)C(C)C)C(C)C)C(C)C`, for which the EC50 in the assay on OK-1 [1] is 4.2 nM; in the assay on SAOS-2 [4], 2.3 nM; in the assay with UMR106-06 [7] (Rattus norvegicus, UMR106-06) it was 3.3 nM. Moreover, the Intrinsic activity with OK-1 [2] was 1; in the assay with SAOS-2 [5] it was 0.96; with UMR106-06 [6], 0.98. The pKD in the assay on OK-1 [3] amounted to 8.6.

For the compound `CC[C@H](C)[C@H](NC(=O)[C@H](CCC(=O)O)NC(=O)[C@H](CO)NC(=O)[C@@H](NC(=O)[C@H](C)N)C(C)C)C(=O)N[C@@H](CCC(N)=O)C(=O)N[C@@H](CC(C)C)C(=O)N[C@@H](CCSC)C(=O)N[C@@H](Cc1c[nH]cn1)C(=O)N[C@@H](CC(N)=O)C(=O)N[C@@H](CC(C)C)C(=O)NCC(=O)N[C@@H](CCCCN)C(=O)N[C@@H](Cc1c[nH]cn1)C(=O)N[C@@H](CC(C)C)C(=O)N[C@@H](CC(N)=O)C(=O)N[C@@H](CO)C(=O)N[C@@H](CCSC)C(=O)N[C@@H](CCC(=O)O)C(=O)N[C@@H](CCCN=C(N)N)C(=O)N[C@H](C(=O)N[C@@H](CCC(=O)O)C(=O)N[C@@H](Cc1c[nH]c2ccccc12)C(=O)N[C@@H](CC(C)C)C(=O)N[C@@H](CCCN=C(N)N)C(=O)N[C@@H](CCCCN)C(=O)N[C@@H](CCCCN)C(=O)N[C@@H](CC(C)C)C(=O)N[C@@H](CCC(N)=O)C(=O)N[C@@H](CC(=O)O)C(=O)N[C@H](C(=O)N[C@@H](Cc1c[nH]cn1)C(=O)N[C@@H](CC(N)=O)C(=O)N[C@@H](Cc1ccccc1)C(=O)N[C@H](C(=O)N[C@@H](C)C(N)=O)C(C)C)C(C)C)C(C)C` (stereo in doubt; form 2), the EC50 amounted to 7 nM with OK-1 [8], 2.4 nM in the assay with SAOS-2 [4] and 1 nM with UMR106-06 [7] (umr106-06). In addition, the Intrinsic activity in the assay on OK-1 [2] is 1; in the assay on SAOS-2 [5], 1; in the assay with UMR106-06 [6], 0.95. In addition, in the assay with OK-1 [3], the pKD amounted to 8.1.
